In patent US10793577B2, “Fused bicyclic compounds for the treatment of disease” (AKARNA THERAPEUTICS, LTD., priority 2014, dated 2020):

Molecular target: T1, FXR (Homo sapiens, UniProt Q96RI1)
T1 construct: expressed in transfected cells
T1 sequence (Q96RI1 1-486): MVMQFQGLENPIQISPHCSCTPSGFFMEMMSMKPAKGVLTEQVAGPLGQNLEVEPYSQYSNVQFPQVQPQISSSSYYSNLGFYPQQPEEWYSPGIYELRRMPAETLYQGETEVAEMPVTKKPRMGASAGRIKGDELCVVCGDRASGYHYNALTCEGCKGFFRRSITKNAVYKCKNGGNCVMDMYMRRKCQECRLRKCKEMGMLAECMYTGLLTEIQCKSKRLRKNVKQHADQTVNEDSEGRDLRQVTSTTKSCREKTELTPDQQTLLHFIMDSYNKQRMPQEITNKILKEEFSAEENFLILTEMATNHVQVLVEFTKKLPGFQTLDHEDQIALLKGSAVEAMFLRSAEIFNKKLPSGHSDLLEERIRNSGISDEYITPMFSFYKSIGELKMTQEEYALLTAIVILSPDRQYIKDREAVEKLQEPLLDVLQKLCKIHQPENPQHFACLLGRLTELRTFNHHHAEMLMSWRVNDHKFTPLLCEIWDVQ
Experiment: FXR agonist transactivation assay (luciferase reporter)
Assay type: cell-based
Conditions: transiently transfected cells, 18 h stimulation with test compound, luciferase normalized to Renilla
Protocol: Example 21: FXR Agonist Transactivation Assay
For the transactivation assay, cells were transiently transfected with 100 ng of reporter vector and 10 ng of expression plasmid. Forty nanograms of pGL4.74 was used as internal control for transfection efficiency. The pGEM vector was added to normalize the amounts of DNA transfected in each assay (2 μg). All transfections were performed using FuGENE HD (Roche, Mannheim, Germany) according to the manufacturer's protocol. Twenty-four hours after transfection, cells were stimulated with increasing concentrations of the test compounds for further 18 h. Control cultures receive vehicle (0.1% DMSO) alone. Luciferase values were normalized with Renilla reniformis luciferase units, for transfection efficiency.

In the case of `CC(C)OC(=O)C1=CN(C(=O)c2ccc(Cl)c(Cl)c2)CC(C)(C)c2c1[nH]c1ncc(Cl)cc21` [Compound 9, Propan-2-yl 4-chloro-12-(3,4-dichlorobenzoyl)-14,14-dimethyl-6,8,12-triazatricyclo[7.5.0.02,7]tetradeca-1(9),2,4,6,10-pentaene-10-carboxylate], the EC50 is reported as 1000 to 10000 nM.
`CC(C)OC(=O)C1=CN(C(=O)c2ccc(F)c(F)c2)CC(C)(C)c2c1[nH]c1ncc(Cl)cc21` [Compound 10, propan-2-yl 4-chloro-12-(3,4-difluorobenzoyl)-14,14-dimethyl-6,8,12-triazatricyclo[7.5.0.02,7]tetradeca-1(9),2,4,6,10-pentaene-10-carboxylate] showed an EC50 of less than 1000 nM.
With `CC(C)OC(=O)C1=CN(C(=O)c2ccc(F)cc2)CC(C)(C)c2c1[nH]c1ncc(Cl)cc21` [Compound 11, propan-2-yl 4-chloro-12-(4-fluorobenzoyl)-14,14-dimethyl-6,8,12-triazatricyclo[7.5.0.02,7]tetradeca-1(9),2,4,6,10-pentaene-10-carboxylate] the EC50 was 1000 to 10000 nM.
`CC(C)OC(=O)C1=CN(C(=O)c2ccc(F)c(F)c2)CC(C)(C)c2c1[nH]c1cc(Cl)cnc21` [Compound 22, Propan-2-yl 5-chloro-12-(3,4-difluorobenzoyl)-14,14-dimethyl-3,8,12-triazatricyclo[7.5.0.02,7]tetradeca-1(9),2,4,6,10-pentaene-10-carboxylate] was tested, and the EC50 was less than 1000 nM.
In the case of `CC(C)OC(=O)C1=CN(C(=O)c2ccc(F)c(F)c2)CC(C)(C)c2c1[nH]c1cc(F)cnc21` [Compound 33], the EC50 is reported as less than 1000 nM.
Compound `COc1ccc2[nH]c3c(c2n1)C(C)(C)CN(C(=O)c1ccc(F)c(F)c1)C=C3C(=O)OC(C)C` [Compound 42, Propan-2-yl 12-(3,4-difluorobenzoyl)-14,14-dimethyl-4-methoxy-3,8,12-triazatricyclo[7.5.0.02,7]tetradeca-1(9),2,4,6,10-pentaene-10-carboxylate] has an EC50 of less than 1000 nM.
`COc1ccc2[nH]c3c(c2n1)C(C)(C)CN(C(=O)c1ccc(F)cc1)C=C3C(=O)OC(C)C` [Compound 43, propan-2-yl 12-(4-fluorobenzoyl)-14,14-dimethyl-4-methoxy-3,8,12-triazatricyclo[7.5.0.02,7]tetradeca-1(9),2,4,6,10-pentaene-10-carboxylate] showed an EC50 of less than 1000 nM.
`CC(C)OC(=O)C1=CN(C(=O)c2ccc(F)c(F)c2)CC(C)(C)c2c1[nH]c1cccnc21` [Compound 55, Propan-2-yl 12-(3,4-difluorobenzoyl)-14,14-dimethyl-3,8,12-triazatricyclo[7.5.0.02,7]tetradeca-1(9),2,4,6,10-pentaene-10-carboxylate] was tested, and the EC50 was less than 1000 nM.
For `CCOC(=O)C1=CN(C(=O)c2ccc(F)c(F)c2)CC(C)(C)c2c1[nH]c1cccnc21` [Compound 56, eth-2-yl 12-(3,4-difluorobenzoyl)-14,14-dimethyl-3,8,12-triazatricyclo[7.5.0.02,7]tetradeca-1(9),2,4,6,10-pentaene-10-carboxylate], the EC50 was less than 1000 nM.
`CC(C)OC(=O)C1=CN(C(=O)c2ccc(F)c(F)c2)CC(C)(C)c2c1[nH]c1ncccc21` [Compound 57, propan-2-yl 12-(3,4-difluorobenzoyl)-14,14-dimethyl-6,8,12-triazatricyclo[7.5.0.02,7]tetradeca-1(9),2,4,6,10-pentaene-10-carboxylate] showed an EC50 of less than 1000 nM.
`CCOC(=O)C1=CN(C(=O)c2ccc(F)c(F)c2)CC(C)(C)c2c1[nH]c1ncccc21` [Compound 58, eth-2-yl 12-(3,4-difluorobenzoyl)-14,14-dimethyl-6,8,12-triazatricyclo[7.5.0.02,7]tetradeca-1(9),2,4,6,10-pentaene-10-carboxylate] showed an EC50 of less than 1000 nM.
Work on `CC(C)OC(=O)C1=CN(C(=O)c2ccc(F)c(F)c2)CC(C)(C)c2c1[nH]c1ncc(F)cc21` [Compound 59, propan-2-yl 4-fluoro-12-(3,4-difluorobenzoyl)-14,14-dimethyl-6,8,12-triazatricyclo[7.5.0.02,7]tetradeca-1(9),2,4,6,10-pentaene-10-carboxylate] yielded an EC50 of less than 1000 nM.
`CC(C)OC(=O)C1=CN(C(=O)c2ccc(F)c(F)c2)CC(C)(C)c2c1[nH]c1cc(OCCO)c(Cl)nc21` [Compound 72, Propan-2-yl 12-(3,4-difluorobenzoyl)-14,14-dimethyl-5-(2-hydroxyethoxy)-4-chloro-3,8,12-triazatricyclo[7.5.0.02,7]tetradeca-1(9),2,4,6,10-pentaene-10-carboxylate] showed an EC50 of 1000 to 10000 nM.
Work on `CC(C)OC(=O)C1=CN(C(=O)c2ccc(F)c(F)c2)CC(C)(C)c2c1[nH]c1ccc(OCCO)nc21` [Compound 84, Propan-2-yl 12-(3,4-difluorobenzoyl)-14,14-dimethyl-4-(2-hydroxyethoxy)-3,8,12-triazatricyclo[7.5.0.02,7]tetradeca-1(9),2,4,6,10-pentaene-10-carboxylate] yielded an EC50 of less than 1000 nM.
Work on `CC(C)NC(=O)C1=CN(C(=O)c2ccc(F)c(F)c2)CC(C)(C)c2c1[nH]c1cc(Cl)cnc21` [Compound 85, 3-chloro-8-(3,4-difluorobenzoyl)-N-isopropyl-10,10-dimethyl-5,8,9,10-tetrahydropyrido[2′,3′:4,5]pyrrolo[2,3-d]azepine-6-carboxamide] yielded an EC50 of less than 1000 nM.
In the case of `COc1ccc2[nH]c3c(c2n1)C(C)(C)CN(C(=O)c1ccc(OCCN2CCOCC2)cc1)C=C3C(=O)OC(C)C` [Compound 91, propan-2-yl 12-(4-(2-morpholinoethoxy)benzoyl)-14,14-dimethyl-4-(methoxy)-3,8,12-triazatricyclo[7.5.0.02,7]tetradeca-1(9),2,4,6,10-pentaene-10-carboxylate], the EC50 is reported as less than 1000 nM.
In the case of `COc1nc2c3c([nH]c2cc1Cl)C(C(=O)OC(C)C)=CN(C(=O)c1ccc(F)c(F)c1)CC3(C)C` [Compound 101, propan-2-yl 5-chloro-4-methoxy-12-(3,4-difluorobenzoyl)-14,14-dimethyl-3,8,12-triazatricyclo[7.5.0.02,7]tetradeca-1(9),2,4,6,10-pentaene-10-carboxylate], the EC50 is reported as less than 1000 nM.
“propan-2-yl 4-chloro-12-(4-(2-morpholinoethoxy)benzoyl)-14,14-dimethyl-6,8,12-triazatricyclo[7.5.0.02,7]tetradeca-1(9),2,4,6,10-pentaene-10-carboxylate [Compound 89]” showed an EC50 of less than 1000 nM.
